# Assay results reported in PMC5111108, “An insecticide resistance-breaking mosquitocide targeting inward rectifier potassium channels in vectors of Zika virus and malaria” (Scientific Reports, 2016).
# How the values were obtained:
# AnKir1 = target: T1, AnKir1 (Anopheles gambiae, UniProt A0A075M2J8); test: Tl+ flux assay in T-REx-HEK293 cells expressing AnKir1; format: cell-based; settings: Tl+ flux; for IC50: Tables S2/S3 and supplemental text, read-out: AnKir1 IC50
# T1 sequence (A0A075M2J8 1-555): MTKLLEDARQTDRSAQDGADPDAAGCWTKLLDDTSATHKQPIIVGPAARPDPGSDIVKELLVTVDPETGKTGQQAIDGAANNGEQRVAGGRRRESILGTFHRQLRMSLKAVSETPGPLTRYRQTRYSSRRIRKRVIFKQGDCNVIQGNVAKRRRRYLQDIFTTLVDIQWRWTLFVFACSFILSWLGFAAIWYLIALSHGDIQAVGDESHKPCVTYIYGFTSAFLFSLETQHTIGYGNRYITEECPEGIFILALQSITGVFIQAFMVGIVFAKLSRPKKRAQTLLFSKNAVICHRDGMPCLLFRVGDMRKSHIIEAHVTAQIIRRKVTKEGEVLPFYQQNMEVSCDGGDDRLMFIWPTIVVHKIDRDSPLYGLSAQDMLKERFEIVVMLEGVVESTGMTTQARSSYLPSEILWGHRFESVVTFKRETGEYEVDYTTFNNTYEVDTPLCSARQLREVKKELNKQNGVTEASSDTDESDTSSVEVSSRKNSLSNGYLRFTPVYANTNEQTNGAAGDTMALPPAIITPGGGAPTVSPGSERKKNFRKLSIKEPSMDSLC
# Procedure: Tl^+ flux assays were performed essentially as described previously. Briefly, stably transfected T-Rex-HEK-293 cells expressing AnKir1 channels were cultured overnight in 384-well plates (20,000 cells/20 μL/well black-walled, clear-bottomed BD PureCoat amine-coated plates (BD, Bedford, MA) with a plating media containing DMEM, 10% dialyzed FBS and 1 μg/mL tetracycline. Approximately twenty-four hours after cell plating, the cell culture medium was replaced with a dye-loading solution containing assay buffer (Hanks Balanced Salt Solution with 20 mM HEPES, pH 7.3), 0.01% (w/v) Pluronic F-127 (Life Technologies, Carlsbad, CA), and 1.2 μM of the thallium-sensitive dye Thallos-AM (TEFlabs, Austin, TX). Following 1 hr incubation at room temperature, the dye-loading solution was washed from the plates and replaced with 20 μL/well of assay buffer.
# Tl+ flux assay development
# Tl+ flux assays were performed essentiall y as described previousl y (1). Briefl y, stabl y transfect ed T-Rex -HEK- 293- AnKir1 cells were cultured overnight in 384-well plates in media containing DMEM, 10% dial yz ed FBS and 1μg/ m L tetrac ycline to induce channel expression
# (Fig. S1A). The next day, the cell culture medium was replaced with a dye-loading solution containing assay buffer (Hanks Balanced Salt Solution with 20 mM HEPES, pH 7.3), 0.01% (w/v) Pluronic F-127 (Li fe Technologies, Carlsbad, CA), and 1.2 μM of the thallium-sensitive dye Thallos-AM (TEFl abs, Austin, TX). Following 1 hr incubation at room temperature, the d ye-loading solution was washed from the plates and replaced with 20 μ L/well of assa y buffer. The plates were transferred t o a Ham amatsu Functional Drug Screening System 6000 (FDSS6000; Hamamatsu, Tokyo, J apan) where 20 μ L/well of test compounds in assay buffer (as prepared below) were added and allowed to incubate with the cells for 20 min. After the incubation period, a baseline recordi ng was collected at 1 Hz for 10 s (excitation 470 ± 20 nm, emission 540 ± 30 nm) followed by a t hallium stimulus buffer addition (10 μL/well) and data collection for an additional 4 min. The Tl + stimulus buffer contains in (mM) 125 NaHCO3, 1.8 CaSO4, 1 MgSO4, 5 glucose, 12 Tl2SO4, 10 HEPES, pH 7.4. For Tl + flux assays on Kir2.x, Kir4.1 and Kir6.2/SUR1 ex pressing cells, the Tl+ stimulus buffer contained 1.8 mM Tl 2SO4. To ensure the small-molecule vehicle DMSO had no direct effect on An Ki r1-dependent Tl+ flux, the assa y’s tolerance to different doses of DMSO was evaluated (Fig. S1B). The robustness and reproducibility of the assay was determined by comparing Tl+ flux through tetracycline-induced and tetracycline-uninduced cells (Fig. S1C). The Z’ value was calculated as described previously (1 ), using the […]
# Z’ = 1- (3SD p + 3SD n)/ |meanp + meann | where SD is standard deviation, p and n are control and uninduced flux values respectivel y.
# To compare the effect of DMSO on An Kir1-mediated Tl+ flux, a one-way ANOVA was performed with a Tuke y’s multiple comparison test. Prism software (GraphPad Software) was used to generate CRC from Tl+ fl ux ..Half-inhibition concentration (IC50) values were calculated from fits using a four parameter logistic equation.
# High-throughput screeni ng
# The test compounds were transferred to daughter pol yprop ylene 384-well plates (G reiner Bio-One, Monroe, NC) using an Echo555 liquid handler (Labcyte, Sunnyvale, CA), and then diluted into assay buffer to generat e a 2X stock in 0.6% DMSO (0.3% final). For Tl+ flux assays on Kir6.2/SUR1 expressing cells, test compounds were diluted in assay buffer containing diazoxide (250 μM final) to induce channel activation. Concentration- response curves (CRCs) were gener ated b y screening compounds at 3-fold dilution series (1 nM - 30 μM).
# Tl+ flux data were anal yzed as previousl y d escri bed (2, 3) using a combination of Excel (Microsoft Corp, Redmond, WA) with XLfit add-in (IDBS, Guildford, Surre y, UK), Ori ginPro […]
# An. gambiae Akron strain = settings: topical, (95% confidence limits); cited from earlier work
# An. gambiae G3 strain = tested on: An. gambiae G3 strain; parameters: method as in PMID 26047119; settings: topical, (95% confidence limits); cited from earlier work
# mosquito Kir1 channels = tested on: mosquito Kir1 channels; parameters: method as in PMID 24959745; settings: read-out: IC50 against mosquito Kir1 channels in vitro; cited from earlier work
# mosquitoes = tested on: mosquitoes; parameters: method as in PMID 24959745; settings: cited from earlier work
# honey bee, A. mellifera = test: Acute topical toxicity to adult honey bees; format: in vivo, Apis mellifera; settings: bifenthrin positive control, 0.3 μg per bee (0.1 μg/bee) topical, 48 h
# Procedure: Frames of late-stage honey bee (A. mellifera) pupae were taken from four colonies at The Ohio State University Honey Bee Lab in Wooster, OH and maintained in a dark humid incubator at 34 °C (Darwin Chambers Co., St. Louis, MO, model H024) until adult bees emerged. New adults were brushed from frames daily and placed in wooden screen cages (21 × 14 × 12 cm) provisioned with 1:1 (w/w) sucrose in water.
# Acute toxicity experiments in adult bees were performed as follows. Twenty-four hours after emergence, adult honey bees in cages were anaesthetized with carbon dioxide, divided into groups of approximately 20 bees and placed in plastic-coated paper cups (177 cm^3; UNIQ Paper Yogurt Cup, Frozen Dessert Supplies, Gilbert, AZ) covered with cotton cheesecloth. […] As a positive control, some bees were treated with 3 μl of bifenthrin (0.1 μg/μl); negative controls consisted of bees treated with 3 μl of solvent. Applications were made using a 20 μl micropipette (Fisherbrand Finnpipette F2, Fisher Scientific, Pittsburgh, PA) with disposable plastic tips. After treatment, bees were returned to the paper cups and provided with sugar syrup in punctured 1.5 ml microcentrifuge tubes. […] Bees showing no movement on inspection at 48 h after treatment were scored as dead.
smiles,measurement,setting,value
O=C(Cn1nc(C(F)(F)F)c2c1CCCC2)N1CCOc2ccccc21 [Compound 14],IC50,AnKir1,4.6 µM
CC1(C)C(C=C(Cl)Cl)C1C(=O)OCc1cccc(Oc2ccccc2)c1 (stereo not drawn) [Permethrin],"ED50, Akron Strain",An. gambiae Akron strain,1.0e-3 (0.8e-4–1.3e-3) μg/mg
same,"ED50, G3 Strain",An. gambiae G3 strain,0.03e-5 (0.02e-5–0.05e-5) μg/mg
CCC(=O)N1c2ccc(S(=O)(=O)Nc3cccc(OC)c3)cc2CC1C (stereo not drawn) [VU625],IC50,mosquito Kir1 channels,~0.1 µM
same,topical toxicity to mosquitoes,mosquitoes,not topically toxic to mosquitoes
O=C(CN1CCCc2ccccc21)N1CCCc2ccccc21 [Compound 6],IC50,AnKir1,8 µM
O=C(Cn1nc(C(F)(F)F)c2c1CCCC2)N1CCc2ccccc2C1 [Compound 8],loss of potency vs VU041 (AnKir1),AnKir1,~ 7 fold
same,IC50,AnKir1,15 µM
"Cc1c(COC(=O)[C@@H]2[C@H](/C=C(\Cl)C(F)(F)F)C2(C)C)cccc1-c1ccccc1 (racemic) [bifenthrin, reference compound]",honey bees dead (mortality),"honey bee, A. mellifera",100%
